Consider 20 molecules from patent US20050267182A1, “Urea derivatives as FLT-3 modulators” (Ambit Biosciences Corporation, priority 2003, published 2005).

For one test, the system named is MV4,11 cells. The test is described as follows: FLT3 assay using MV4,11 cells (cellular proliferation, MTS). In kind it is cell-based, human. As to conditions: cell assay code CS0001. As to the method:
The ability of FLT3 kinase inhibitors to inhibit cellular proliferation was also examined. MV4:11 was a cell line derived from a patient with acute myelogenous leukemia.
FLT3 Assay Using MV4,11 Cells
MV4,11 cells were grown in an incubator @ 37° C. in 5% CO2 in Medium 2 (RPMI, 10% FBS, 4 mM glutamine, Penn/Strep). The cells were counted daily and the cell density was kept between 1e5 and 8e5 cells/ml.
Day One: Enough cells were harvested for experiments to be conducted in 50 ml conical tubes. The harvested cells were spun at 500 g for 5 min at 4° C., the supernatant was then aspirated and the cells were resuspended in the starting volume of 1×PBS. The cells were again spun at 500 g for 5 min at 4° C. and the supernatant again aspirated. The cells were then resuspended in medium 3 (DMEM w/ glut, 10% FBS, Penn/Strep) to a density of 4e5 cells/ml and incubated (37° C. in 5% CO2 O/N.
Day Two: The cells were counted and enough medium 3 was added to decrease density to 2e5 cells/ml. 50 ul (10,000 cells) was aliquoted into each well of a 96 well optical plate using multichannel pipetman. The compound plate was then set up by aliquoting 3 μl of negative control (DMSO) into column 1 of a 96 well 300 ul polypropylene plate, aliquoting 3 μt of positive control (10 mM AB20121) into column 12 of plate, and aliquoting 3 μl of appropriate compounds from serial dilutions into columns 2-11. To each well, 150 μl of Medium 3 was added and 50 μl of compound/medium mixture from compound plate into rows of optical plate in duplicate. The cells were then incubated @ 37° C. in 5% CO2 for 3 days.
Day Five: MTS was thawed in a H2O bath. 20 μl of MTS was added to each well of optical plate and the cells were incubated (37° C. in 5% CO2 for 2 hours. The plate was then placed on a plate shaker for 30 seconds on high speed.

In another test the target is T1, FLT3 (Homo sapiens, UniProt P36888).
T1 construct: FLT3(DKIN); made in house
T1 sequence (P36888 610-943 limits assumed): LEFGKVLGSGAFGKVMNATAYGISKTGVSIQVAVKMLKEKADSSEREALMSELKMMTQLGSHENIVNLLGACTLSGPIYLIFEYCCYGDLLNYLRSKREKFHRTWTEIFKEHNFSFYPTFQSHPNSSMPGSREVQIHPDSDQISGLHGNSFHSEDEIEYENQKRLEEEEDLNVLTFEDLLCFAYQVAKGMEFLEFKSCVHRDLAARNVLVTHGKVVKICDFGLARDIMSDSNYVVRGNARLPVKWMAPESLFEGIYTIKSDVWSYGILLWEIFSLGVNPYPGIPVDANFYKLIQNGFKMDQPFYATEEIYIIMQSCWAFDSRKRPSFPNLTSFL
The test is described as follows: Binding constant (Kd) measurement, phage-displayed kinase competition binding assay. An excerpt:
Binding Constant (Kd) Measurements for Small-Molecule-Kinase Interactions
The term “ND” represents non-determined values.

Structures are written as SMILES.

For `CC1CN(CCOc2ccc(NC(=O)Nc3cc(C(C)(C)C)on3)cc2)CC(C)O1` (stereo not shown) [Compound G42], the “Cell Assay: CS0001:IC50” value in the test on MV4,11 cells was “+ +”. Moreover, the “Binding Assay: FLT3(DKIN)” value at FLT3 (FLT3(DKIN) construct) is on record as “+ + +”.
`C=C/C(=C\C=C\Cl)NC(=O)Nc1ccc(C(=O)OCCOC)cc1` [Compound Z54]: in the test with MV4,11 cells, the “Cell Assay: CS0001:IC50” value is given as “+ +”. For the same molecule, the “Binding Assay: FLT3(DKIN)” value at FLT3 (FLT3(DKIN) construct) is on record as “+ +”.
On to `Cc1nc(N)cc(Nc2ccc(NC(=O)Nc3cc(C(C)(C)C)on3)cc2)n1` [Compound O10], for which the “Cell Assay: CS0001:IC50” value in the test with MV4,11 cells is “+ + +”. The “Binding Assay: FLT3(DKIN)” value on FLT3 (FLT3(DKIN) construct) is “+ + + +”.
In the same order, the values of `Cc1noc(-c2ccc(NC(=O)Nc3cc(C(C)(C)C)on3)cc2)n1` [Compound P9] are “+ + +” and “+ + + +”.
In the same order, the values of `CC(C)(C)c1cc(NC(=O)Nc2ccc(NC(=O)C3=Cc4cc(F)cc(S(C)(=O)=O)c4C3)cc2)no1` [Compound N62] are “+ + +” and “+ + + +”.
As to `COc1cc(OC)nc(C2CCCCC2C(=O)Nc2ccc(NC(=O)Nc3cc(C(C)(C)C)on3)cc2)n1` (stereo not shown) [Compound N129], in the test on MV4,11 cells, the “Cell Assay: CS0001:IC50” value is recorded as “+ + +”. Besides, the “Binding Assay: FLT3(JMminus)” value on FLT3 (FLT3(JMminus) construct) is “+ + +”.
Consider `COc1cccc(COc2ccc(NC(=O)Nc3cc(C(C)(C)C)on3)cc2)c1` [Compound G13], for which the “Cell Assay: CS0001:IC50” value with MV4,11 cells is listed as “+ + + +”. The “Binding Assay: FLT3(DKIN)” value on FLT3 (FLT3(DKIN) construct) is “+ + + +”.
On to `CC(C)(C)c1cc(NC(=O)Nc2ccc(NC(=O)c3cccnc3)cc2)co1` [Compound N1], for which the “Cell Assay: CS0001:IC50” value in the test with MV4,11 cells is “+ + +”. In addition, the “Binding Assay: FLT3(DKIN)” value on FLT3 (FLT3(DKIN) construct) is “+ + + +”.
In the same order, the values of `CC(C)(C)c1cc(NC(=O)Nc2ccc(OCCc3ccc(F)cc3)cc2)no1` [Compound G24] are “+ + +” and “+ + + +”.
In the same order, the values of `COc1ccc(-c2noc(-c3ccc(NC(=O)Nc4cc(C(C)(C)C)on4)cc3)n2)c2ccccc12` [Compound P3] are “+ + +” and “+ + +”.
For the molecule `CC(C)(C)c1cc(NC(=O)Nc2ccc(OCc3ccc(F)cc3Cl)cc2)no1` [Compound G18], in the test with MV4,11 cells, the “Cell Assay: CS0001:IC50” value is reported as “+ + +”. Besides, at FLT3 (FLT3(DKIN) construct), the “Binding Assay: FLT3(DKIN)” value is reported as “+ + + +”.
Take `CC1CCCN(CCOc2ccc(NC(=O)Nc3cc(C(C)(C)C)on3)cc2)C1` (stereo not shown) [Compound G44]: the “Cell Assay: CS0001:IC50” value in the test on MV4,11 cells is “+ +”. Besides, the “Binding Assay: FLT3(DKIN)” value on FLT3 (FLT3(DKIN) construct) is listed as “+ +”.
For the molecule `CC(C)(C)c1cc(NC(=O)Nc2ccc(NC(=O)c3nccc4ccccc34)cc2)no1` [Compound N117], the “Cell Assay: CS0001:IC50” value in the test with MV4,11 cells is reported as “+ + + +”. The “Binding Assay: FLT3(DKIN)” value on FLT3 (FLT3(DKIN) construct) is recorded as “+ + + +”.
Turning to `CC(C)CCOC(=O)c1nnsc1NC(=O)Nc1ccc(Br)cc1` [Compound Z36], the “Cell Assay: CS0001:IC50” value in the test on MV4,11 cells is recorded as “+ +”. The Kd on FLT3 (FLT3(DKIN) construct) is greater than 10 µM.
On to `CC(C)(C)c1cc(NC(=O)Nc2ccc(NC(=O)C3CCNCC3)cc2)no1` [Compound N150], for which the IC50 in the test on MV4,11 cells (Homo sapiens, MV4-11) was greater than 10 µM. Besides, the “Binding Assay: FLT3(DKIN)” value on FLT3 (FLT3(DKIN) construct) is “+ + +”.
Turning to `CC1CN(CCOc2ccc(NC(=O)Nc3cc(C(C)(C)C)on3)cc2)CCN1` (stereo not shown) [Compound G46], the “Cell Assay: CS0001:IC50” value in the test with MV4,11 cells is given as “+ +”. Further, the “Binding Assay: FLT3(DKIN)” value at FLT3 (FLT3(DKIN) construct) is on record as “+ +”.
In the case of `CCOC(=O)CCc1c(C)[nH]c(C(=O)Nc2ccc(NC(=O)Nc3cc(C(C)(C)C)on3)cc2)c1C` [Compound N83], in the test on MV4,11 cells, the “Cell Assay: CS0001:IC50” value is listed as “+ + +”. Besides, the “Binding Assay: FLT3(DKIN)” value at FLT3 (FLT3(DKIN) construct) was “+ + + +”.
On to `CC(C)(C)c1csc(NC(=O)Nc2ccc(OCc3ccccc3)cc2)n1` [Compound G49], for which the “Cell Assay: CS0001:IC50” value with MV4,11 cells is “+ + +”. Further, at FLT3 (FLT3(DKIN) construct), the “Binding Assay: FLT3(DKIN)” value is reported as “+ +”.
For `Cc1ccc(-n2nc(C(C)(C)C)cc2NC(=O)Nc2ccc(OCCN3CCOC(CO)C3)c3ccccc23)cc1` (stereo not shown) [Compound G38], the “Cell Assay: CS0001:IC50” value in the test with MV4,11 cells is on record as “+ + +”. Besides, the “Binding Assay: FLT3(DKIN)” value on FLT3 (FLT3(DKIN) construct) is given as “+ + + +”.
Consider `CC(=O)c1ccc(NC(=O)Nc2cc(C(C)(C)C)on2)cc1` [Compound A20], for which the “Cell Assay: CS0001:IC50” value with MV4,11 cells was “+ + +”. Also, the “Binding Assay: FLT3(DKIN)” value on FLT3 (FLT3(DKIN) construct) was “+ + +”.

As usually defined, the Kd is the constant that tells how readily two partners part at equilibrium. A higher Kd goes with a looser complex. For orientation: IC50 means the point on the concentration scale where inhibition reaches its midpoint.
